In article PMC6270011, “Design and Synthesis of Arylthiophene-2-Carbaldehydes via Suzuki-Miyaura Reactions and Their Biological Evaluation” (Molecules, 2013):
Converted amounts (≈) assume the structure as drawn. Read-outs that look alike come from different tables or passages of the source.

How the values were obtained:
[1] = tested on: Salmonella typhi; assay: Antibacterial activity (disc / inhibition zone) against Salmonella typhi; conditions: Salmonella enterica, read-out: Inhibition zone, S. typhi
[2] = tested on: Shigella dysenteriae; assay: Antibacterial activity (disc / inhibition zone) against Shigella dysenteriae; conditions: read-out: Inhibition zone, S. dysenteriae
[3] = Nitric oxide (NO) scavenging assay; format: biochemical
Text: Nitric oxide (NO) is a free radical causing inflammatory disorders and cancer in the human body when sodium nitroprusside decomposes to produce nitric oxide. The antioxidant activity of various thiophene derivatives has been reported in the literature and it has also been observed that compounds with high antioxidant activity served as antitumor agents. The newly synthesized compounds reacted directly with nitric oxide and inhibited nitrite formation in an excellent way.
The reaction mixtures comprising sample solution (2 µL), phosphate buffer (17 µL) and sodium nitroprusside (20 µL) were incubated at 37 °C for 2 h in well plates. Then Griess reagent (20 µL, 0.3% sulphanilic acid in glacial acetic acid + 0.1% naphthylethylenediamine (NED): equal volumes of both solutions mixed just before use) was added to each well plate and the mixture kept at room temperature for 20 min to develop the color. The absorbance was measured at 528 nm by using an ELISA reader. The results were processed using Gen 5 software. All the reactions were performed in triplicate. Positive control (containing known antioxidant) and control (containing all samples) were run in parallel. Negative control was used to calibrate the instrument. The % age antioxidant activity was determined by using the following formula: % antioxidant activity = [(Absorbance of control − absorbance of sample)/(Absorbance of control)] × 100

[4] = tested on: Staphylococcus aureus; assay: Antibacterial activity (disc / inhibition zone) against Staphylococcus aureus; conditions: read-out: Inhibition zone, S. aureus
[5] = tested on: human red blood cells (erythrocytes); format: cell-based; conditions: for Haemolytic activity, percentage of lysis (Average ± SD): human erythrocytes, 37 °C, 35 min
Description: Three mL of freshly obtained human blood was placed in heparinized tubes to avoid coagulation, gently mixed and poured into a sterile 15 mL Falcon tube and centrifuged for 5 min at 1,000 ×g. The supernatant was discarded and red blood cells were washed three times with chilled (4 °C) sterile isotonic phosphate buffer saline pH 7.4 (5 mL). Erythrocytes (10^8 cells/mL) were maintained for each assay by dilution with phosphate buffer saline. Erythrocytes were counted on a heamacytometer. Twenty µL of each compound was mixed with red blood cells suspension (180 μL) separately. The samples were incubated at 37 °C for 35 min. The samples were placed on ice for 5 min and then agitated at 1,000 ×g for 5 min. Supernatant (100 µL) were taken from each tube and diluted 10 times with chilled (4 °C) phosphate buffered saline. Triton X-100 (0.1% v/v) was taken as a positive control and PBS was negative control and then subjected to the same process. […] The percentage RBSs lyses for each sample was calculated.

[6] = tested on: Bacillus subtilis; assay: Antibacterial activity (disc / inhibition zone) against Bacillus subtilis; conditions: for zone of inhibition at 50 µg/mL / zone of inhibition at 25 µg/mL: read-out: Inhibition zone, B. subtilis
[7] = tested on: Escherichia coli; assay: Antibacterial activity (disc / inhibition zone) against Escherichia coli; conditions: for zone of inhibition at 50 µg/mL / zone of inhibition at 25 µg/mL: read-out: Inhibition zone, E.coli
[8] = tested on: Pseudomonas aeruginosa; assay: Antibacterial activity (disc / inhibition zone) against Pseudomonas aeruginosa; conditions: for zone of inhibition at 50 µg/mL / zone of inhibition at 25 µg/mL: read-out: Inhibition zone, P. aeruginosa
[9] = 25 µg/mL, read-out: % Activity at 25 µg (NO scavenging)
[10] = 50 µg/mL, read-out: % Activity at 50 µg (NO scavenging)
[11] = 100 µg/mL, read-out: % Activity at 100 µg (NO scavenging)

SMILES	zone of inhibition at 50 µg/mL [1]	zone of inhibition at 50 µg/mL [2]	IC50 (NO scavenging) [3]	inhibition [3, 9]	inhibition [3, 10]	inhibition [3, 11]	zone of inhibition at 50 µg/mL [4]	Haemolytic activity, percentage of lysis (Average ± SD) [5]	melting point	zone of inhibition at 50 µg/mL [6]	zone of inhibition at 50 µg/mL [7]	zone of inhibition at 50 µg/mL [8]	zone of inhibition at 25 µg/mL [1]	zone of inhibition at 25 µg/mL [2]	zone of inhibition at 25 µg/mL [4]	zone of inhibition at 25 µg/mL [6]	zone of inhibition at 25 µg/mL [7]	zone of inhibition at 25 µg/mL [8]	Haemolytic activity, in words [5]	further results
O=Cc1cc(-c2ccccc2)cs1 [2a, 4-Phenylthiophene-2-carbaldehyde]	61 ± 0.13 mm	63 ± 0.18 mm	92.5 µg/mL (≈ 491 µM)	12 ± 0.037%	33 ± 0.0035%	48 ± 0.049%	63 ± 0.18 mm	3.947 ± 0.078%	57 to 59 °C	61 ± 0.14 mm	47 ± 0.15 mm	67.6 ± 0.001 mm								
O=Cc1cc(-c2cc(C(F)(F)F)cc(C(F)(F)F)c2)cs1 [2b, 4-(3,5-Bis(trifloromethyl)phenyl)thiophene-2-carbaldehyde]	63 ± 0.25 mm	62.4 ± 0.1 mm	66.6 µg/mL (≈ 205 µM)	10 ± 0.02%	45 ± 0.001%	60 ± 0.021%	62.4 ± 0.1 mm	5.003 ± 0.078%	95 to 97 °C	59 ± 0.1 mm		67 ± 0.01 mm	33 ± 0.2 mm	33 ± 0.05 mm	36.6 ± 0.4 mm	23 ± 0.09 mm	18 ± 0.13 mm	42 ± 0.02 mm		
O=Cc1cc(-c2ccc(Cl)s2)cs1 [2c]	64 ± 0.5 mm	64 ± 0.11 mm	83.3 µg/mL (≈ 364 µM)	18 ± 0.007%	40 ± 0.038%	55 ± 0.04%	64 ± 0.11 mm	3.934 ± 0.095%	229 to 231 °C	60 ± 0.01 mm	24 ± 0.17 mm	60 ± 0.009 mm	34 ± 0.05 mm	35 ± 0.01 mm	34 ± 0.01 mm	36.2 ± 0.05 mm	14 ± 0.14 mm	45 ± 0.019 mm		IC50 ([6]; read-out: IC50 against Bacillus subtilis): 39.4 µg/mL (≈ 172 µM)
N#Cc1cc(-c2csc(C=O)c2)cc(C(F)(F)F)c1 [2d, 3-(5-Formylthiophene-3-yl)-5-(trifloromethyl)benzonitrile]	64 ± 0.05 mm	63 ± 0.31 mm	45.6 µg/mL (≈ 162 µM)	12 ± 0.025%	58 ± 0.01%	73 ± 0.0028%	63 ± 0.31 mm	3.306 ± 0.058%	252 to 254 °C	58 ± 0.35 mm	40.5 ± 0.19 mm	67 ± 0.01 mm	30 ± 0.15 mm	35 ± 0.15 mm	33 ± 0.01 mm	28.3 ± 0.75 mm	32.5 ± 0.12 mm	46 ± 0.02 mm	lowest haemolytic property	IC50 ([8]; read-out: IC50 against Pseudomonas aeruginosa): 29.7 µg/mL (≈ 106 µM)
Cc1ccc(-c2csc(C=O)c2)cc1 [2e, 4-p-Tolylthiophene-2-carbaldehyde]	53 ± 0.12 mm	58 ± 0.01 mm		-15 ± 0.04%	-12 ± 0.037%	3 ± 0.0014%	58 ± 0.01 mm	3.356 ± 0.075%	58 to 60 °C	54 ± 0.17 mm	62 ± 0.01 mm	60 ± 0.03 mm	22.2 ± 0.14 mm	41 ± 0.05 mm	28 ± 0.2 mm	22.4 ± 0.13 mm	32 ± 0.05 mm	44 ± 0.02 mm	lowest haemolytic property	IC50 ([7]; read-out: IC50 against Escherichia coli): 40 µg/mL (≈ 198 µM)
